The values that follow come from US6372774B1, “Derivatives of N-phenylpyrazoles” (Rhone-Poulenc Agriculture Ltd., priority 1985, dated 2002).

For assay [1], the system named is Plutella xylostella (Diamond-back Moth). The assay can be described thus: whole plant or invertebrate. The format is in vivo. The conditions noted are these: foliar; for mortality at 500 ppm: read-out: mortality of larvae of Plutella xylostella; for pest or weed control at 500 ppm: read-out: Plutella % m 500 ppm. An excerpt:
(§1) One or more dilutions of the compounds to be tested were made in 50% aqueous acetone.
(§2) a) Test species: Plutella xylostella (Diamond-back Moth) and Phaedon cochleariae (Mustard Beetle)
(§3) Turnip leaf discs were set in agar in petri-dishes and infected with 10 larvae (2nd instar Plutella or 3rd instar Phaedon). Four replicate dishes were assigned to each treatment and were sprayed under a Potter Tower with the appropriate test dilution. Four or five days after treatment the dishes were removed from the constant temperature (25° C.) room in which they had been held and the mean percentage mortalities of larvae were determined.

Assay [2] deals with Phaedon cochleariae (Mustard Beetle). The assay can be described thus: Test 3 a): leaf disc spray test, Phaedon cochleariae larvae. The format is in vivo. The conditions noted are these: Phaedon cochleariae, foliar; for pest or weed control at 10 ppm: read-out: Phaedon % m 10 ppm; for mortality at 5 ppm: read-out: mortality of larvae of Phaedon cochleariae.
Description: as §1, §2, §3

Setting [3] is: Test 3 method (a), application of 500 ppm.

Read-outs that look alike come from different tables or passages of the source.

`N#Cc1c(I)nn(-c2c(Cl)cc(C(F)(F)F)cc2Cl)c1N` [Compound 116, 5-Amino-3-iodo-4-cyano-1-(2,6-dichloro-4-trifluoromethylphenyl)pyrazole]: in assay [1], the mortality (as a rule, the percentage killed) at 500 ppm came out at 100%. For the same compound, the pest or weed control at 10 ppm in assay [2] was determined as 93%.
The corresponding values for `CS(=O)(=O)c1c(C(F)(F)F)nn(-c2c(Cl)cc(C(F)(F)F)cc2Cl)c1N` [Compound 130, 5-Amino-1-(2,6-dichloro-4-trifluoromethylphenyl)-4-methanesulphonyl-3-trifluoromethylpyrazole] are 100% and 100%.
As for `NC(=O)c1c(C(F)(F)F)nn(-c2c(Cl)cc(C(F)(F)F)cc2Cl)c1N` [Compound 131, 5-Amino-4-carbamoyl-1-(2,6-dichloro-4-trifluoromethylphenyl)-3-trifluoromethylpyrazole], in assay [1], the pest or weed control at 500 ppm was 58%. Moreover, in assay [2], the pest or weed control at 10 ppm worked out at 100%.
Taken in the same sequence, the figures for `COC(=O)c1c(C(F)(F)F)nn(-c2c(Cl)cc(C(F)(F)F)cc2Cl)c1N` [Compound 132, 5-Amino-1-(2,6-dichloro-4-trifluoromethylphenyl)-4-methoxycarbonyl-3-trifluoromethylpyrazole] were 10% and 100%.
Turning to `CN(C)c1c(C#N)c(C(F)(F)F)nn1-c1c(Cl)cc(C(F)(F)F)cc1Cl` [Compound 136, 4-Cyano-1-(2,6-dichloro-4-trifluoromethylphenyl)-5-dimethylamino-3-trifluoromethylpyrazole], in assay [1], the mortality at 500 ppm worked out at 100%. In addition, the pest or weed control at 10 ppm in assay [2] came out at 56%.
As to `CCOC(=O)CNc1c(C#N)c(C(F)(F)F)nn1-c1c(Cl)cc(C(F)(F)F)cc1Cl` [Compound 137, 4-Cyano-1-(2,6-dichloro-4-trifluoromethylphenyl)-5-ethoxycarbonylmethylamino-3-trifluoromethylpyrazole], the pest or weed control at 500 ppm in assay [1] came out at 48%. The pest or weed control at 10 ppm in assay [2] came out at 100%.
On to `CNc1c(C#N)c(C(F)(F)F)nn1-c1c(Cl)cc(C(F)(F)F)cc1Cl` [Compound 138, 4-Cyano-5-methylamino-1-(2,6-dichloro-4-trifluoromethylphenyl)-3-trifluoromethylpyrazole], for which the mortality at 500 ppm in assay [1] was found to be 100%. The pest or weed control at 10 ppm in assay [2] is 100%.
With `CC(C)(C)C(=O)Nc1c(C#N)c(C(F)(F)F)nn1-c1c(Cl)cc(C(F)(F)F)cc1Cl` [Compound 139, 4-Cyano-1-(2,6-dichloro-4-trifluoromethylphenyl)-5-(2,2-dimethylpropionamido)-3-trifluoromethylpyrazole], the mortality at 500 ppm in assay [1] amounted to 100%. Further, the pest or weed control at 10 ppm in assay [2] is 16%.
The corresponding values for `Nc1c(Br)c(C(F)(F)F)nn1-c1c(Cl)cc(C(F)(F)F)cc1Cl` [Compound 140, 5-Amino-4-bromo-1-(2,6-dichloro-4-trifluoromethylphenyl)-3-trifluoromethylpyrazole] are 100% and 84%.
On to `N#Cc1c(C(F)(F)F)nn(-c2c(Cl)cc(C(F)(F)F)cc2Cl)c1Br` [Compound 141, 5-Bromo-4-cyano-1-(2,6-dichloro-4-trifluoromethylphenyl)-3-trifluoromethylpyrazole], for which the pest or weed control at 500 ppm in assay [1] came to 44%. For the same compound, the pest or weed control at 10 ppm in assay [2] came out at 100%.
On to `Nc1c([N+](=O)[O-])c(C(F)(F)F)nn1-c1c(Cl)cc(C(F)(F)F)cc1Cl` [Compound 143, 5-Amino-1-(2,6-dichloro-4-trifluoromethylphenyl)-4-nitro-3-trifluoromethylpyrazole], for which the mortality at 500 ppm in assay [1] was 100%. In assay [2], the pest or weed control at 10 ppm amounted to 100%.
Consider `CCOC(=O)N(C(=O)OCC)c1c(C#N)c(C(F)(F)F)nn1-c1c(Cl)cc(C(F)(F)F)cc1Cl` [Compound 145, 4-Cyano-1-(2,6-dichloro-4-trifluoromethylphenyl)-5-bis(ethoxycarbonyl)amino-3-trifluoromethylpyrazole], for which the mortality at 500 ppm in assay [1] (setting [3]) is 100%. Moreover, the pest or weed control at 10 ppm in assay [2] was found to be 100%.
Turning to `N#Cc1c(C(F)(F)F)nn(-c2c(Cl)cc(C(F)(F)F)cc2Cl)c1N(C(=O)C1CC1)C(=O)C1CC1` [Compound 146, 4-Cyano-1-(2,6-dichloro-4-trifluoromethylphenyl)-5-bis(cyclopropanecarbonyl)amino-3-trifluoromethylpyrazole], the mortality at 500 ppm in assay [1] was 100%. Further, in assay [2], the pest or weed control at 10 ppm came out at 85%.
For `Nc1c(Cl)c(C(F)(F)F)nn1-c1c(Cl)cc(C(F)(F)F)cc1Cl` [Compound 148, 5-Amino-4-chloro-1-(2,6-dichloro-4-trifluoromethylphenyl)-3-trifluoromethylpyrazole], the pest or weed control at 500 ppm in assay [1] was 98%. In assay [2], the pest or weed control at 10 ppm was determined as 21%.
Turning to `CCOC(=O)Nc1c(C#N)c(C(F)(F)F)nn1-c1c(Cl)cc(C(F)(F)F)cc1Cl` [Compound 149, 4-Cyano-1-(2,6-dichloro-4-trifluoromethylphenyl)-5-ethoxycarbonylamino-3-trifluoromethylpyrazole], the mortality at 500 ppm in assay [1] (setting [3]) is 100%. For the same compound, the pest or weed control at 10 ppm in assay [2] came out at 100%.
As for `Cc1c(C#N)c(C(F)(F)F)nn1-c1c(Cl)cc(C(F)(F)F)cc1Cl` [Compound 152, 4-Cyano-1-(2,6-dichloro-4-trifluoromethylphenyl)-5-methyl-3-trifluoromethylpyrazole], the mortality at 500 ppm in assay [1] came out at 100%. In assay [2], the pest or weed control at 10 ppm came out at 100%.
On to `N#Cc1c(C(F)(F)C(F)(F)C(F)(F)F)nn(-c2c(Cl)cc(C(F)(F)F)cc2Cl)c1N` [Compound 155, 5-Amino-4-cyano-1-(2,6-dichloro-4-trifluoromethylphenyl)-3-heptafluoropropylpyrazole], for which the pest or weed control at 500 ppm in assay [1] (Tables 1-2, % mortality at 500 ppm) came out at 96%. For the same compound, the pest or weed control at 10 ppm in assay [2] (Tables 1-3, % mortality at 10 ppm) was determined as 100%.
As to `CC(C)(C)C(=O)Nc1c([N+](=O)[O-])c(C(F)(F)F)nn1-c1c(Cl)cc(C(F)(F)F)cc1Cl` [Compound 178, 1-(2,6-Dichloro-4-trifluoromethylphenyl)-4-nitro-3-trifluoromethyl-5-trimethylacetylaminopyrazole], the mortality at 500 ppm in assay [1] turned out to be 100%. The mortality at 5 ppm in assay [2] turned out to be 100%.
Consider `CCOC(=O)Nc1c([N+](=O)[O-])c(C(F)(F)F)nn1-c1c(Cl)cc(C(F)(F)F)cc1Cl` [Compound 179, 1-(2,6-Dichloro-4-trifluoromethylphenyl)-5-ethoxycarbonylamino-4-nitro-3-trifluoromethylpyrazole], for which the mortality at 500 ppm in assay [1] came to 100%. Moreover, the mortality at 5 ppm in assay [2] is 100%.
As to `CCOC(=O)Nc1c(S(C)(=O)=O)c(C(F)(F)F)nn1-c1c(Cl)cc(C(F)(F)F)cc1Cl` [Compound 187, 1-(2,6-Dichloro-4-trifluoromethylphenyl)-5-ethoxycarbonylamino-4-methanesulphonyl-3-trifluoromethylpyrazole], in assay [1], the mortality at 500 ppm stood at 100%. The mortality at 5 ppm in assay [2] was 100%.
For `CCOC(=O)Nc1c(C#N)c(C#N)nn1-c1c(Cl)cc(C(F)(F)F)cc1Cl` [Compound 188, 1-(2,6-Dichloro-4-trifluoromethylphenyl)-3,4-dicyano-5-ethoxycarbonylaminopyrazole], the mortality at 500 ppm in assay [1] was found to be 100%. Further, the mortality at 5 ppm in assay [2] came out at 100%.
Turning to `O=[N+]([O-])c1cn(-c2c(Cl)cc(C(F)(F)F)cc2Cl)nc1C(F)(F)F` [Compound 193, 1-(2,6-Dichloro-4-trifluoromethylphenyl)-4-nitro-3-trifluoromethylpyrazole], the mortality at 500 ppm in assay [1] stood at 100%. In addition, the mortality at 5 ppm in assay [2] was found to be 100%.
`N#Cc1cn(-c2c(Cl)cc(C(F)(F)F)cc2Cl)nc1F` [Compound 195, 4-Cyano-1-(2,6-dichloro-4-trifluoromethylphenyl)-3-fluoropyrazole]: the mortality at 500 ppm in assay [1] was 100%.
For `N#Cc1c(F)nn(-c2c(Cl)cc(C(F)(F)F)cc2Cl)c1N` [Compound 202, 5-Amino-1-(2,6-dichloro-4-trifluoromethylphenyl)-4-cyano-3-fluoropyrazole], the mortality at 500 ppm in assay [1] amounted to 100%.
With `CSc1c(C#N)c(C(F)(F)F)nn1-c1c(Cl)cc(C(F)(F)F)cc1Cl` [Compound 207, 4-Cyano-1-(2,6-dichloro-4-trifluoromethylphenyl)-5-methylthio-3-trifluoromethylpyrazole], in assay [1], the mortality at 500 ppm was 100%. Further, the mortality at 5 ppm in assay [2] is 100%.
As to `C[Si](C)(C)Cc1c(C#N)c(C(F)(F)F)nn1-c1c(Cl)cc(C(F)(F)F)cc1Cl` [Compound 211, 4-Cyano-1-(2,6-dichloro-4-trifluoromethylphenyl)-3-trifluoromethyl-5-trimethylsilylmethylpyrazole], the mortality at 500 ppm in assay [1] was determined as 100%.
As to `COC(=O)Nc1c(C#N)c(C(F)(F)F)nn1-c1c(Cl)cc(C(F)(F)F)cc1Cl` [Compound 212, 4-Cyano-1-(2,6-dichloro-4-trifluoromethylphenyl)-5-methoxycarbonylamino-3-trifluoromethylpyrazole], the mortality at 500 ppm in assay [1] is 100%. Also, the mortality at 5 ppm in assay [2] came to 100%.
In the case of `N#Cc1c(C(F)(F)F)nn(-c2c(Cl)cc(C(F)(F)F)cc2Cl)c1C#N` [Compound 213, 1-(2,6-Dichloro-4-trifluoromethylphenyl)-4,5-dicyano-3-trifluoromethylpyrazole], the mortality at 500 ppm in assay [1] is 100%.
Take `C[S+]([O-])c1c(C(F)(F)F)nn(-c2c(Cl)cc(C(F)(F)F)cc2Cl)c1N` (stereo not drawn) [Compound 216, 5-Amino-1-(2,6-dichloro-4-trifluoromethylphenyl)-4-methylsulphinyl-3-trifluoromethylpyrazole]: the mortality at 500 ppm in assay [1] amounted to 100%. In addition, the mortality at 5 ppm in assay [2] is 100%.
